Data as given in publication PMC6476888, “Design and synthesis of anticancer 1-hydroxynaphthalene-2-carboxanilides with a p53 independent mechanism of action” (Scientific Reports, 2019).
Where two headings read alike, the source gives them in different places.

How the values were obtained:
[1] = tested on: NHDF; experiment: Cytotoxicity (MTS, 72 h) against normal human fibroblasts; assay type: cell-based; conditions: for IC50: MTS, 72 h incubation
Method: (§1) All of the synthesized compounds were tested for their antiproliferative activity against human colon cancer (Table 1). We used both the wild-type and p53-negative cell lines (HCT116^+/+ and HCT116^−/−, respectively). Mutations in the TP53 gene are present in more than 50% of all cancers and often specifically correspond to a difficult therapy, resistance or a bad prognosis[60]–[63]. The active compounds were additionally tested for their cytotoxicity against normal human fibroblasts. We used 5-fluorouracil (5-FLU), doxorubicin (DOX) and CP-31398 as the standards. 5-FLU is one of the first antimetabolites that was dedicated for cancer treatment and is still used for a wide range of cancers including colon carcinoma. Doxorubicin is a DNA topoisomerase II poison with a high intercalating potency, which is able to induce apoptosis through the p53 pathway. Although DOX has been described as being ineffective in some p53 mutants, its level of activity against the p53 null lines is similar. CP-31398, on the other hand, is an experimental drug in the clinical phase and its mechanism of action is through the reactivation some of p53 mutants. Its activity against the p53 null cell lines is greatly diminished and is actually lower than its cytotoxicity.
(§2) The human colon cancer cell line HCT116 wild type was obtained from ATCC and the normal human fibroblast cell lines NHDF were obtained from PromoCell. The human colon cancer cell line HCT116 with a p53 deletion (p53^−/−) was kindly provided by Prof. M. Rusin from the Maria Sklodowska-Curie Memorial Cancer Centre and Institute of Oncology in Gliwice, Poland[89]. The cells were grown as monolayer cultures in Dulbecco’s modified Eagle’s medium with the antibiotic gentamicin (200 μL/100 mL medium) in 75 cm^2 flasks (Nunc). The DMEM for the HCT116 were supplemented with 12% heat-inactivated fetal bovine serum (Sigma-Aldrich, St. Louis, MO, USA) and for NHDF with 15% non-inactivated fetal bovine serum (Sigma Aldrich, St. Louis, MO, USA). The cells were cultured under standard conditions at 37 °C in a humidified atmosphere at 5% CO2.
(§3) The cells were seeded in 96-well plates (Nunc) at a density of 5,000 cells/well (HCT116) and 4,000 cells/well (NHDF) and incubated at 37 °C for 24 h. The assay was performed following a 72 h incubation with varying concentrations of the compounds that were being tested. Then, 20 µL of CellTiter 96® AQueous One Solution-MTS (Promega) was added to each well (with 100 µL DMEM without phenol red) and incubated for 1 h at 37 °C. The optical densities of the samples were analyzed at 490 nm using a Synergy 4 multi-plate reader (BioTek, Winooski, VT, USA). The results are expressed as the percentage of the control and were calculated as the inhibitory concentration (IC50) values (using a GraphPad Prism 7). The IC50 parameter was defined as the compound concentration that was necessary to reduce the proliferation of cells to 50% of the untreated control. Each individual compound was tested in triplicate in a single experiment with each experiment being repeated three or four times.

[2] = tested on: HCT116^+/+; experiment: Antiproliferative assay (MTS, 72 h) on HCT116 wild type; assay type: cell-based, human; conditions: MTS, 72 h incubation, read-out: Activity IC50 HCT116^+/+
Method: as §1, §2, §3

[3] = tested on: HCT116^−/−; experiment: Antiproliferative assay (MTS, 72 h) on HCT116 with p53 deletion; assay type: cell-based, human; conditions: for IC50: MTS, 72 h incubation
Method: as §1, §2, §3

| SMILES | IC50 [1] [µM] | IC50 [2] [µM] | IC50 [3] [µM] | other results |
| --- | --- | --- | --- | --- |
| COc1cc(NC(=O)c2ccc3ccccc3c2O)cc(OC)c1 [2e, N-(3,5-dimethoxyphenyl)−1-hydroxynaphthalene-2-carboxamide] | – | – | – | IC50 ([1]; Homo sapiens, NHDF): > 25 µM; IC50 ([2]; Homo sapiens, HCT-116): > 25 µM; IC50 ([3]; Homo sapiens, HCT-116): > 25 µM |
| O=c1[nH]cc(F)c(=O)[nH]1 [5-FLU, 5-fluorouracil, reference compound] | – | – | – | IC50 ([1]; Homo sapiens, NHDF): > 25 µM; IC50 ([2]; Homo sapiens, HCT-116): 4.42 ± 0.7 µM; IC50 ([3]; Homo sapiens, HCT-116): 4.69 ± 0.31 µM |
| O=C(Nc1c(F)cc(F)cc1F)c1ccc2ccccc2c1O [4k] | – | – | – | melting point: 180 to 184 °C; IC50 ([2]; Homo sapiens, HCT-116): > 25 µM; IC50 ([3]; Homo sapiens, HCT-116): > 25 µM |
| O=C(Nc1cc(Br)ccc1Br)c1ccc2ccccc2c1O [6e] | > 25 | 5.24 ± 0.28 | 5.85 ± 0.61 | – |
| O=C(Nc1c(Cl)cc(Cl)cc1Cl)c1ccc2ccccc2c1O [5k] | > 25 | 19.4 ± 1.27 | > 25 | – |
| O=C(Nc1cccc(C(F)(F)F)c1)c1ccc2ccccc2c1O [7b] | > 25 | 6.25 ± 0.47 | 1.39 ± 0.29 | – |
| O=C(Nc1ccc([N+](=O)[O-])c(C(F)(F)F)c1)c1ccc2ccccc2c1O [7p] | 9.68 ± 1.49 | 1.64 ± 0.47 | 1.39 ± 0.44 | – |
| O=C(Nc1cccc(Cl)c1)c1ccc2ccccc2c1O [5b] | > 25 | 4.7 ± 0.4 | 1.78 ± 0.32 | – |
| O=C(Nc1ccc([N+](=O)[O-])cc1)c1ccc2ccccc2c1O [8c] | 12.3 ± 1.49 | 0.41 ± 0.05 | 0.69 ± 0.09 | selectivity index ([1]; cytotoxicity against the normal cell line vs HCT116): 30 |
| Cc1ccc(NC(=O)c2ccc3ccccc3c2O)cc1C(F)(F)F [7l] | – | – | – | melting point: 168 to 171 °C; IC50 ([2]; Homo sapiens, HCT-116): > 25 µM; IC50 ([3]; Homo sapiens, HCT-116): > 25 µM |
| COc1cccc(C)c1NC(=O)c1ccc2ccccc2c1O [2k] | – | – | – | melting point: 177 to 179 °C; IC50 ([2]; Homo sapiens, HCT-116): > 25 µM; IC50 ([3]; Homo sapiens, HCT-116): > 25 µM |
| O=C(Nc1cccc([N+](=O)[O-])c1)c1ccc2ccccc2c1O [8b] | > 25 | 6.82 ± 1.17 | 3.1 ± 0.63 | – |
| COc1cccc(NC(=O)c2ccc3ccccc3c2O)c1 [2b] | > 25 | 8.51 ± 1.69 | 24.1 ± 3.54 | – |
| Cc1cc(C)c(NC(=O)c2ccc3ccccc3c2O)c(C)c1 [3g] | – | – | – | melting point: 160 to 163 °C; IC50 ([2]; Homo sapiens, HCT-116): > 25 µM; IC50 ([3]; Homo sapiens, HCT-116): > 25 µM |
| O=C(Nc1ccccc1Cl)c1ccc2ccccc2c1O [5a] | > 25 | 16.5 ± 2.25 | 22.4 ± 3.58 | – |
| O=C(Nc1c(Br)cc(F)c(Cl)c1Br)c1ccc2ccccc2c1O [6m] | – | – | – | melting point: 244 to 247 °C; IC50 ([2]; Homo sapiens, HCT-116): > 25 µM; IC50 ([3]; Homo sapiens, HCT-116): > 25 µM |
| O=C(Nc1ccc(Cl)cc1)c1ccc2ccccc2c1O [5c] | > 25 | 9.62 ± 0.75 | 9.41 ± 0.78 | – |
| O=C(Nc1cc(C(F)(F)F)ccc1Br)c1ccc2ccccc2c1O [6k] | 22.2 ± 0.83 | 8.18 ± 1.72 | 7.15 ± 1.96 | – |
| O=C(Nc1ccccc1Br)c1ccc2ccccc2c1O [6a] | > 25 | 22.5 ± 3.62 | > 25 | – |
| O=C(Nc1ccc(Cl)c(Cl)c1)c1ccc2ccccc2c1O [5h] | > 25 | 5.15 ± 0.5 | 4.74 ± 0.82 | selectivity towards the p53 null cells (HCT116 p53^−/− vs wild type) [3]: not selective |
| O=C(Nc1cccc(Cl)c1Cl)c1ccc2ccccc2c1O [5d] | > 25 | 4.66 ± 0.58 | 8.25 ± 0.64 | – |
| O=C(Nc1ccc(C(F)(F)F)cc1Cl)c1ccc2ccccc2c1O [5o] | 13.2 ± 1.97 | 4.92 ± 1.32 | 5.41 ± 1.11 | – |
| O=C(Nc1cc(Cl)c(Cl)c(Cl)c1)c1ccc2ccccc2c1O [5l] | 7.01 ± 0.42 | 1.31 ± 0.15 | 2.86 ± 0.33 | – |
| O=C(Nc1ccccc1[N+](=O)[O-])c1ccc2ccccc2c1O [8a] | 22.7 ± 2.71 | 23.3 ± 3.77 | > 25 | – |
| O=C(Nc1ccc(F)cc1)c1ccc2ccccc2c1O [4c] | > 25 | 2.49 ± 0.61 | 5.01 ± 1.12 | – |
